# Where a SMILES comes first, the peptide text is derived from it. [ ]: non-standard residue; d: D form. pGlu = O=C1CC[C@@H](C(=O)O)N1; dNle = CCCC[C@@H](N)C(=O)O; Aib = CC(C)(N)C(=O)O
# Assays:
# [1] = Surrogate Activity-Based Plasma Stability Assay; type: in vitro ADME; conditions: rat
# Experimental: Stability half-life was then calculated by the formula, t½=0.693÷k Surrogate Activity-Based Plasma Stability Assay: […]
# 2) Calculate slope of value above and […]
# [2] = Plasma Stability Assay (LC-MS); type: in vitro ADME; conditions: male, Sprague-Dawley, rat
# Experimental: Plasma Stability Assay: Materials: Working solution: 1 mg/mL test article is prepared in Milli-Q water Extraction solution: Methanol:Acetonitrile:Water (1:1:1) with 0.1% Formic Acid and 400 ng/mL Glyburide. Plasma: Male Sprague-Dawley rat plasma (with sodium heparin), purchased from Bioreclamation LLC (Liverpool, N.Y.). Test article was prepared in one of the following biological matrices: heparinized rat plasma, heparinized rat whole blood or lung homogenate. […] Lung homogenate samples were prepared by diluting lung homogenate to 1 mg/ml protein concentration with phosphate buffered saline (PBS), followed by addition of 5 uL Working solution to 995 uL diluted lung homogenate. The samples were incubated at 37° C. with gentle shaking (65˜75 rpm) in a water bath incubator. […] Afterwards, a pipetting device (Tecan Temo) was used to tranfer the supernatants to another plate and add 50 uL of water to all samples. The plate was vortexed prior to LC-MS analysis. LC-MS Analysis of stability samples HPLC: Agilent 1290 HPLC with autosampler Column: MAC-MOD ACE C18, 3 μm, 30 mm×2.1 mm i.d. Mobile phase A: 0.1% Formic acid in acetonitrile Mobile phase B: 0.1% Formic acid in water Gradient Program: [table]
# hAPJ = target: T1, hAPJ (Homo sapiens, UniProt P35414); assay: hAPJ Calcium Flux Assay; type: cell-based; conditions: Chem-5 APJ stable cells, FLIPR calcium flux stimulation; read-out: hAPJ Ca^2+ Flux EC50
# T1 sequence (P35414 1-380): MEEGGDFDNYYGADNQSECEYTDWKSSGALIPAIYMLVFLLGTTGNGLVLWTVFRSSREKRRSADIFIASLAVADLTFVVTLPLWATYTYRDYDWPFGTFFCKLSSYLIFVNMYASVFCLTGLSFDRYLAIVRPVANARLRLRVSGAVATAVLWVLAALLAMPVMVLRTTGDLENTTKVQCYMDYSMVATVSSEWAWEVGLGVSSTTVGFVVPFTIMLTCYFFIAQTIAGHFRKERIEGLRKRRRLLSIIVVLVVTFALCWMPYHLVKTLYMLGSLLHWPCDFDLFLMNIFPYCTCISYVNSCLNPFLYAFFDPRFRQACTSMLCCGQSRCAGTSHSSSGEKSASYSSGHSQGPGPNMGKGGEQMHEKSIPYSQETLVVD
# Procedure, shortened: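 Chem-5 cells stably expressing APJ, loaded 1 h with Calcium 4 dye plus 2.5 mM probenecid at 37 °C. Peptides added at final […] in HBSS/HEPES/0.1% BSA, in triplicate.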
# [3] = Surrogate Activity based Plasma stability t½
# [4] = Surrogate activity-based Plasma stability t½
"half-life [1, 3] [h]","half-life [1, 4] [h]",half-life at 5000 ng/mL [2] [h],EC50 (hAPJ) [nM],SMILES
12.2,12.2,6.9,5,"CCCC[C@@H](NC(=O)[C@@H]1CCCN1C(=O)CNC(=O)[C@H](CCCCN)NC(=O)C(C)(C)NC(=O)[C@H](CO)NC(=O)[C@@H](CC(C)C)NC(=O)[C@H](CCCNC(=N)N)NC(=O)[C@@H]1CCCN1C(=O)[C@H](CCCNC(=N)N)NC(=O)[C@@H]1CCC(=O)N1)C(=O)N[C@H](C)C(=O)N[C@H](Cc1ccccc1)C(=O)O [Example 4, pE-R-P-R-(D-Leu)-S-Aib-K-G-P-nle-a-f-OH] ([pGlu]RPR[dL]S[Aib]KGP[dNle][dA][dF]-OH)"
3.08,3.08,6.75,3.2,"CCCC[C@@H](NC(=O)[C@@H]1CCCN1C(=O)CNC(=O)[C@H](CCCCN)NC(=O)[C@H](Cc1c[nH]cn1)NC(=O)[C@@H](C)NC(=O)[C@H](CC(C)C)NC(=O)[C@H](CCCNC(=N)N)NC(=O)[C@@H]1CCCN1C(=O)[C@H](CCCNC(=N)N)NC(=O)[C@@H]1CCC(=O)N1)C(=O)N[C@H](CC(C)C)C(=O)N[C@H](Cc1ccccc1)C(=O)O [Example 14, pE-R-P-R-L-a-H-K-G-P-nle-(D-Leu)-f-OH] ([pGlu]RPRL[dA]HKGP[dNle][dL][dF]-OH)"
6.82,6.82,7.47,8.8,"CCCC[C@@H](NC(=O)[C@@H]1CCCN1C(=O)CNC(=O)[C@H](CCCCN)NC(=O)[C@@H](Cc1c[nH]cn1)NC(=O)[C@@H](C)NC(=O)[C@H](CC(C)C)NC(=O)[C@H](CCCNC(=N)N)NC(=O)[C@@H]1CCCN1C(=O)[C@H](CCCNC(=N)N)NC(=O)[C@@H]1CCC(=O)N1)C(=O)N[C@H](C)C(=O)N[C@H](Cc1ccccc1)C(=O)O [Example 16, pE-R-P-R-L-a-h-K-G-P-nle-a-f-OH]"
> 16.7,> 16.7,6.08,3.1,"CCCC[C@@H](NC(=O)[C@@H]1CCCN1C(=O)CNC(=O)[C@H](CCCCN)NC(=O)[C@H](Cc1ccccc1)NC(=O)[C@@H](C)NC(=O)[C@H](CC(C)C)NC(=O)[C@H](CCCNC(=N)N)NC(=O)[C@@H]1CCCN1C(=O)[C@H](CCCNC(=N)N)NC(=O)[C@@H]1CCC(=O)N1)C(=O)N[C@H](C)C(=O)N[C@H](Cc1ccccc1)C(=O)O [Example 17, pE-R-P-R-L-a-F-K-G-P-nle-a-f-OH] ([pGlu]RPRL[dA]FKGP[dNle][dA][dF]-OH)"
9.42,9.42,2.6,,"CCCC[C@@H](NC(=O)[C@@H]1CCCN1C(=O)CNC(=O)[C@H](CCCCN)NC(=O)[C@H](Cc1c[nH]cn1)NC(=O)[C@@H](C)NC(=O)[C@H](CC(C)C)NC(=O)[C@H](CCCNC(=N)N)NC(=O)[C@@H]1CCCN1C(=O)[C@H](CCCNC(=N)N)NC(=O)[C@@H]1CCC(=O)N1)C(=O)N[C@H](C)C(=O)N[C@H](Cc1ccccc1)C(=O)O [Example 29, pE-R-P-R-L-a-H-K-G-P-nle-a-f-OH]"
2.13,2.14,2.02,2.4,"CCCC[C@H](NC(=O)[C@@H]1CCCN1C(=O)CNC(=O)[C@H](CCCCN)NC(=O)[C@H](Cc1c[nH]cn1)NC(=O)[C@@H](C)NC(=O)[C@H](CC(C)C)NC(=O)[C@H](CCCNC(=N)N)NC(=O)[C@@H]1CCCN1C(=O)[C@H](CCCNC(=N)N)NC(=O)[C@@H]1CCC(=O)N1)C(=O)N[C@H](C)C(=O)N[C@H](Cc1ccccc1)C(=O)O [Example 30, pE-R-P-R-L-a-H-K-G-P-Nle-a-f-OH]"
